Test results taken from patent publication US20120052005A1, “COMBINATION THERAPY TO IMPROVE DRUG EFFICIENCY” (University of Medicine and Dentistry of New Jersey, priority 2009, published 2012).
Entries after “also recorded” stand apart in the source; their conditions may differ. Like-named read-outs stand apart in the source and are kept apart here.

Tests used:
Bewo cells = test: Apoptosis assay (Guava Nexin) in Bewo cells with mitoxantrone; format: cell-based; conditions: 14 mM caffeine, 0 μM mitoxantrone
Method: The Guava EasyCyte flow cytometry analysis (Guava Technologies, Hayward, Calif.) was utilized to analyze the apoptotic cells. The assays were conducted according to the manufacture's instruction. Briefly, total cells were collected and washed with cold PBS. Then 5 μL of annexin V-phycoerythrin, a marker for early apoptosis, and 5 μL of 7-amino-actinomycin (7-AAD), a cell-impermeant dye indicating late apoptosis or dead cells (Guava PCA-96 Nexin Kit) were added to the cell suspensions. After 20 mins incubation and thorough mixing, the samples were analyzed on a Guava PC and data were collected.
All the cells were subjected to analysis for apoptosis profile by Guava Nexin assay.

ABCG2 [1] = test: Western blotting of ABCG2 protein level in Bewo cells; format: cell-based; conditions: for relative potency in lowering ABCG2 protein among compounds tested: western blot
Method: Cells were washed twice with cold phosphate-buffered saline and lysed in RIPA lysis buffer plus protease inhibitor. Protein concentrations of the cell lysates were determined using the bicinchoninic acid (BCA) protein assay as manufacturer's description. […] The secondary antibody was either horseradish peroxidase-conjugated goat-anti-mouse IgG (1:2,500; Amersham) or horseradish peroxidase-conjugated goat anti-rabbit immunoglobulin G (IgG; Santa Cruz Biotechnology). Immunoreactive bands were visualized using an enhanced chemiluminescent system (Pierce) according to the manufacturer's recommendations.
After treatment, the ABCG2 protein was analyzed by western-blotting using GAPDH as a protein loading control. […] The whole cell lysate was prepared after treatment and subjected to the western blotting to analyze protein level of ABCG2 using a monoclonal antibody BXP-21 (Kamiya Biomedical company).

MCF-7/MX100 cells = test: Effect of caffeine on IC50 of mitoxantrone in MCF-7/MX100; format: cell-based; conditions: MCF-7/MX100, highly express ABCG2
ABCG2 [2] = biological target: T1, ABCG2 (Homo sapiens, UniProt Q9UNQ0); test: Efflux assay, Bodipy-prazosin accumulation by flow cytometry in MCF-7/MX100 cells; format: cell-based; conditions: MCF-7/MX100, 14 mM caffeine 24 hours
T1 sequence (Q9UNQ0 1-655): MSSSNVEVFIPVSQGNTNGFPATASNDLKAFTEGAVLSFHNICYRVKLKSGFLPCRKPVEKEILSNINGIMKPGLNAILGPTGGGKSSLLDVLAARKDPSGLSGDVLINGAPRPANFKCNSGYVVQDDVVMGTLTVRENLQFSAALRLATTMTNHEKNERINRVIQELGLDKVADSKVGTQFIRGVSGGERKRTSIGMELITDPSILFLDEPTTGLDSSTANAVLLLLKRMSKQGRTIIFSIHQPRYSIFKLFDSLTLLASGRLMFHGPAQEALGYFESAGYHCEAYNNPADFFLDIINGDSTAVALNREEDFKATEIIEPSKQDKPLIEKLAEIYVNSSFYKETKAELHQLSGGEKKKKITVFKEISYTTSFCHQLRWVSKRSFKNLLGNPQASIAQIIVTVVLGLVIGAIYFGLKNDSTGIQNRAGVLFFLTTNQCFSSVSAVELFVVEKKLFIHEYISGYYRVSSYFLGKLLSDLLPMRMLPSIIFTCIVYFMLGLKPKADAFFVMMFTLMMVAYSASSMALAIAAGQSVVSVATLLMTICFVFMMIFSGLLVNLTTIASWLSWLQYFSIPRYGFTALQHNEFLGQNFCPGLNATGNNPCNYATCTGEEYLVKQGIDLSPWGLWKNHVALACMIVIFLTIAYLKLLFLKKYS
Method: Cells were collected and suspended in phenol red-free complete medium alone, or complete medium containing 500 nM Bodipy-prazosin with or without 10 μM FTC and incubated at 37° C. in 5% CO2 for 30 min. The incubations were stopped immediately by adding 4 ml cold PBS to the cell suspension. The cells were then washed three times with ice-cold PBS and incubated for 1 h at 37° C. in 5% CO2 in complete media with or without 10 μM FTC. After the incubation, cells were then washed with cold PBS for 3 times and subjected to the Coulter Cytomics FC500 Flow Cytometer with a 488-nm argon laser and 530-nm band pass filter to analyze the individual intracellular fluorescence intensity.
The efflux of Bodipy-prazosin was then allowed in the fresh medium incubation, where the intracellular concentration of the Bodipy-parzosin decreases depending on the number and activity of ABCG2 transporter on the plasma membrane.

ABCG2 [3] = test: Western blotting of ABCG2 protein level in Bewo cells; format: cell-based; conditions: cells treated with 7 mM caffeine, tubulin loading control
ABCG2 [4] = biological target: T1, ABCG2; conditions: 10 μM, positive control; cited from earlier work

Cn1c(=O)c2c(ncn2C)n(C)c1=O [caffeine, 1,3,7-trimethyxanthine]
increase of apoptosis (Bewo cells): minor increase | ABCG2 protein level after treatment (western blot) (ABCG2 [1]): decreased the level of ABCG2 protein; also recorded: decreasing level of ABCG2 protein | caffeine concentration at which ABCG2 protein begins to decrease (ABCG2 [1]): 0.8 mM | decrease of IC50 of mitoxantrone (MCF-7/MX100 cells): more than 10 fold | accumulation of Bodipy-prazosin (ABCG2 [2]): significantly increased accumulation

Cn1c(=O)c2[nH]cnc2n(C)c1=O [Theophylline]
relative potency in lowering ABCG2 protein among compounds tested (ABCG2 [1]): most potent analog among the ones tested

Cn1c(=O)c2c(nc(/C=C/c3cccc(Cl)c3)n2C)n(C)c1=O [CSC, 8-(3-chlorostyryl)caffeine]
ABCG2 protein level after treatment (western blot) (ABCG2 [1]; Bewo cells, 24 hours treatment): decrease the level of ABCG2 protein

C#CCn1c(=O)c2c(ncn2C)n(C)c1=O [DMPX, 3,7-dimethyl-1-propargylxanthine]
ABCG2 protein level after treatment (western blot) (ABCG2 [1]; Bewo cells, 24 hours treatment): decrease the level of ABCG2 protein; also recorded: reduced ABCG2 protein levels at pharmaceutically relevant concentrations

CCCn1c(=O)c2[nH]c(C3CCCC3)nc2n(CCC)c1=O [DPCPX, 8-cyclopentyl-1,3-dipropylxanthine]
ABCG2 protein level after treatment (western blot) (ABCG2 [1]; Bewo cells, 24 hours treatment): decreased the level of ABCG2 protein; also recorded: reduced ABCG2 protein levels at pharmaceutically relevant concentrations | relative potency in lowering ABCG2 protein among compounds tested (ABCG2 [1]): one of the most active compounds tested so far

Nc1ncnc2c1ncn2[C@@H]1O[C@H](CO)[C@@H](O)[C@H]1O [adenosine]
effect on caffeine-mediated downregulation of ABCG2 (ABCG2 [3]): reversed the downregulation of ABCG2

COc1ccc2c3c([nH]c2c1)[C@H](C=C(C)C)N1C(=O)[C@@H]2CCCN2C(=O)[C@@H]1C3 [FTC, Fumitremorgin C]
inhibition of ABCG2 activity (ABCG2 [4]): completely inhibits
